# Test results taken from publication PMC10107428 (Chemistry (Weinheim an Der Bergstrasse, Germany), 2022).
# Target: T1, Galectin-8 (Gal8-6FW) (Homo sapiens, UniProt O00214)
# T1 sequence (O00214 1-317): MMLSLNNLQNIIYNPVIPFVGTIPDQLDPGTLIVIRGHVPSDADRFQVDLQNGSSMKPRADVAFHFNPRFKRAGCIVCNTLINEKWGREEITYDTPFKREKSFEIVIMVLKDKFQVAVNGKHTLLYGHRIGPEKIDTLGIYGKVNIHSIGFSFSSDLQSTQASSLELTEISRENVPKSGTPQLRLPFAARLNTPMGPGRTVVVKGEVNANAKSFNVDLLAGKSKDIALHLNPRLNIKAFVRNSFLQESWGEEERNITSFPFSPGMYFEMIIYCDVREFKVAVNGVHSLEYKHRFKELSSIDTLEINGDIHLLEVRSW
# Test: […] NMR titration
# Type: binding
structure (smiles),measurement,value
OC[C@H]1O[C@@H](O[C@H]2[C@H](O)[C@@H](O)C(O)O[C@@H]2CO)[C@H](O)[C@@H](O)[C@H]1O (stereo partly shown) [lactose],19F NMR titration,Lactose binds to both domains of Gal8 with very similar and weak affinities
